# pIC50: −log10 of the molar value.
# Tests used:
# [1] = Cytotoxicity assay (Sulforhodamine B); assay type: cell-based; settings: human
# Experimental: The cytotoxicity was detected by Sulforhodamine B method. The human pancreatic cancer cell line Capan-1, human colon cancer cell line HCT-116 and human lung adenocarcinoma cell line NCI-H1373 were purchased from American Type Culture Collection (ATCC; Manassas, VA) and inoculated into 96-well plates in triplicate. The cells were treated with different concentrations of compounds in humidified incubator containing 5% CO2 for 72 h when they reached 70%-80% confluence. Vincristine was added as a positive control. Then, SRB staining agent was added and microplate analyzer was used to read the absorbance at 450 nm wavelength. The cytotoxicity of each compound is expressed as the concentration of the compound that reduces cell viability to 50% (IC50). The optical density (OD) at a wavelength of 450 nm was measured using an SpectraMax 190 Microplate Reader (Molecular Devices; USA). The IC50 value was calculated by the Logit method using Graphpad Prism 9.1.
# [2] = system: S.aureus USA300 LAC biofilm; experiment: Static biofilm inhibition assay (crystal violet); assay type: cell-based, Staphylococcus aureus
# [3] = system: USA300 LAC; experiment: MIC determination, broth microdilution; settings: Staphylococcus aureus
# [4] = system: USA400 MW2; experiment: MIC determination, broth microdilution; settings: Staphylococcus aureus
# [5] = system: USA400 MW2; experiment: Checkerboard MIC assay with oxacillin; assay type: cell-based, Staphylococcus aureus; settings: for FICI / Sensitization fold / Maximum sensitization concentration / Minimum sensitization concentration: USA400 MW2/oxacillin; for Maximum sensitization concentration / Minimum sensitization concentration: test range 0.03–32 μg/mL; for MIC of β-lactam, combined: USA400 MW2
# Experimental: (§1) In the checkerboard assay, concentrations of antibiotics, oxacillin and imipenem, and TarO inhibitors were simultaneously varied across columns and the rows, respectively. […] The range of each compound chosen for the checkerboard assay was according to their MIC value. […] For each clear well observed on the checkerboard MIC plate, the fractional inhibitory concentration index (FICI) was calculated as follows: FICI = FIC (inhibitor) + FIC (antibiotic) = MIC inhibitor in combination/ MIC inhibitor alone + MIC antibiotic in combination/MIC antibiotic alone. FIC = Fractional Inhibitory Concentration. A FICI value of < 0.5 indicates synergy, a value between 0.5 and 2 indicates additivity or indifference, and a value > 2 indicates antagonism.
# [6] = system: USA300 LAC; experiment: Checkerboard MIC assay with oxacillin; assay type: cell-based, Staphylococcus aureus; settings: USA300 LAC/oxacillin; for Minimum sensitization concentration: test range 0.03–32 μg/mL
# Experimental: as §1
# [7] = molecular target: TarO (Staphylococcus aureus, UniProt Q2G060); assay type: cell-based; settings: for pIC50: relative inhibition rate against the wild-type strain, OD600 at 20 h, n.a. = IC50 cannot be calculated within the test range
# [8] = system: HS663; experiment: MIC determination, broth microdilution; settings: Staphylococcus aureus
# [9] = system: HS663; experiment: Checkerboard MIC assay with imipenem; assay type: cell-based, Staphylococcus aureus; settings: for FICI / Sensitization fold / Maximum sensitization concentration / Minimum sensitization concentration: HS663/imipenem; for Maximum sensitization concentration / Minimum sensitization concentration: test range 0.03–32 μg/mL; for MIC of β-lactam, combined: HS663
# Experimental: as §1
# [10] = Preliminary liver microsomal stability testing; assay type: in vitro ADME, Mouse; settings: for Clint In Vitro / Comments (metabolic stability): Mouse liver microsomes; for half-life at 0.1 μM: pH 7.4, Mouse liver microsomes 0.33 mg/mL, 0.1 μM compound
# Experimental: 6. Supplementary Ta b l e 3: Preliminary liver microsomal stability testing of Ta r O
# Compounds Species T1/2 Clint In Vitro MF […]
# a MF: metabolic bioavailability.
# Microsomes in 0.1 M TRIS buffer pH 7.4 (final concentration 0.33 mg/mL), co- factor MgCl2 (final concentration 5 mM) and tested compound (final concentration 0.1 μM, co-solvent 0.01% DMSO and 0.005% Bovin serum albumin BSA) were incubated at 37°C for 10 min. The reaction was started by the addition of NADPH (final concentration 1 mM). Aliquots were sampled at 0, 5, 15, 30 and 60 min respectively and methanol (cold in wet ice) was added to terminate the reaction.
# After centrifugation (4000rpm,5 min), samples were then analyzed by LC- MS/MS.
# [11] = system: TntarO::vraXpro-lux (S.aureus JE2 tarO mutant); experiment: vraXpro-lux induction and growth of tarO mutant (target verification); assay type: cell-based, Staphylococcus aureus; settings: different concentrations
# Experimental: Second, the vraXpro-lux induction and growth inhibition experiment were conducted using a tarO mutant, as we assumed that a compound with other targets may still change the growth characteristic and the vraXpro-lux expression pattern of the mutant, whereas a TarO inhibitor would not, as its target is absent in the mutant.
# Generally, JE2::vraXpro-lux and its isogenic ^TntarO::vraXpro-lux reporter strains were used for preliminary screening and cellular-based target verification. JE2::vraXpro-lux was obtained by transduction of the vraXpro-lux fusions from RN4220 strain to JE2, a plasmid-cured derivative of the community-associated MRSA strain USA300 LAC. ^TntarO::vraXpro-lux was further obtained by transposon insertion mutation of the tarO gene using a mariner-based transposon in JE2 reporter strain[41]. […] Then, 200 μL aliquot of the samples were distributed to a 96-well black-wall clear-bottom plate (Costar, Corning Incorporated), and 45 μL saxoline was added to each well to prevent the evaporation of the medium. vraXpro-lux expression level and the growth curve were measured using a Cytation 1 Multi-Mode Microplate Reader (Biotek) at different time points as indicated.
# [12] = Solubility of compounds in water (HPLC); assay type: physicochemical; settings: pure water
# Experimental: Weigh the sample in a 10 mL volumetric flask, dissolve in methanol up to the mark to obtain a reference solution of known concentration. Inject 5 μL into the HPLC, detect peak area at 254 nm wavelength. Prepare supersaturated aqueous solution of the sample, filter and inject 5 μL into the HPLC, detect peak area at 254 nm wavelength. The solubility of the compound in water […] is calculated according to the following formula: CS = CA × AB/AA (CA represents the concentration of the reference solution, AA represents the peak area of the reference solution, and AB represents the saturated peak area of the sample).
# [13] = Capan-1 cells (human pancreatic cancer cell line), Capan-1, 72 h
# [14] = HCT-116 cells (human colon cancer cell line), HCT-116, 72 h
# [15] = NCI-H1373 cells (human lung adenocarcinoma cell line), NCI-H1373, 72 h
# [16] = at maximum sensitization concentration
# [17] = at minimum sensitization concentration
# [18] = oxacillin with TarO inhibitor at maximum sensitization concentration
# [19] = oxacillin with TarO inhibitor at minimum sensitization concentration
# [20] = imipenem with TarO inhibitor at maximum sensitization concentration
# [21] = imipenem with TarO inhibitor at minimum sensitization concentration
SMILES,"IC50 at 72 h [1, 13] [µM]","IC50 at 72 h [1, 14] [µM]","IC50 at 72 h [1, 15] [µM]",MIC [3] [µg/mL],MIC [4] [µg/mL],"FICI [5, 16]","Sensitization fold [5, 16]","Sensitization fold [5, 17]",Maximum sensitization concentration [5] [µg/mL],Minimum sensitization concentration [5] [µg/mL],"MIC of β-lactam, combined [5, 18] [µg/mL]","MIC of β-lactam, combined [5, 19] [µg/mL]","FICI [6, 16]","Sensitization fold [6, 16]","FICI [6, 17]","Sensitization fold [6, 17]",Minimum sensitization concentration [6] [µg/mL],pIC50 [7],MIC [8] [µg/mL],"FICI [9, 16]",further results
C[C@H]1[C@@H](c2cc(C(F)(F)F)cc(C(F)(F)F)c2)OC(=O)N1C(=O)CCN1CCCc2ccccc21 [Compound 10],> 20,> 20,> 20,> 256,> 256,<0.07,16,8,0.12,0.03,1,2,<0.07,16,<0.13,8,0.03,6.85,> 256,<0.02,"inhibition of biofilm formation ([2]; 0.125 μg/mL): near a half; inhibition at 0.5 µg/mL ([2]; Staphylococcus aureus, USA300, read-out: inhibition of biofilm formation): > 90%; FICI [5, 17]: <0.13; Sensitization fold [9, 16]: 64; FICI [9, 17]: <0.13; Sensitization fold [9, 17]: 8; Maximum sensitization concentration [9]: 0.25 µg/mL; Minimum sensitization concentration [9]: 0.03 µg/mL; MIC of β-lactam, combined [9, 20]: 1 µg/mL; MIC of β-lactam, combined [9, 21]: 8 µg/mL; Clint In Vitro [10]: 1779 mL/min/gprot; Comments (metabolic stability) [10]: poor; half-life at 0.1 μM [10]: 1.18 min"
C[C@H]1[C@@H](c2cc(C(F)(F)F)cc(C(F)(F)F)c2)OC(=O)N1C(=O)CCn1ccc(=O)c2ccccc21 [Compound 17a],–,–,–,–,–,–,–,–,–,–,–,–,< 0.13,1024,< 0.15,8,4,5.39,–,–,–
COc1cc(C(F)(F)F)cc([C@H]2OC(=O)N(C(=O)CCn3ccc(=O)c4cccnc43)[C@H]2C)n1 [Compound 18b],> 20,> 20,> 20,> 256,> 256,<0.16,32,2,32,0.06,0.5,8,<0.19,16,<0.26,4,0.25,4.91,> 256,<0.08,"concentration (as low as) significantly reducing biofilm formation ([2]; USA300 LAC, 24 h static culture): 8 µg/mL; Sensitization fold [9, 16]: 16; FICI [9, 17]: <0.51; Sensitization fold [9, 17]: 2; Maximum sensitization concentration [9]: 2 µg/mL; Minimum sensitization concentration [9]: 0.12 µg/mL; MIC of β-lactam, combined [9, 20]: 4 µg/mL; MIC of β-lactam, combined [9, 21]: 32 µg/mL; Clint In Vitro [10]: 1267 mL/min/gprot; Comments (metabolic stability) [10]: poor; half-life at 0.1 μM [10]: 1.66 min"
"C[C@H]1[C@@H](c2cc(C(F)(F)F)cc(C(F)(F)F)c2)OC(=O)N1C(=O)Cc1cccc2ccccc12 [Tarocin A, reference compound]",> 20,> 20,> 20,> 256,> 256,<0.07,16,2,0.5,0.06,1,8,<0.26,4,<0.51,2,0.06,5.01,> 256,<0.14,"static biofilm formation ([2]; USA300 LAC, tested concentration range 0.03 to 32 μg/mL): did not reduce static biofilm formation; FICI [5, 17]: <0.51; vraXpro-lux expression pattern and growth characteristics of the tarO mutant [11]: neither Tarocin A nor 18a further changed the vraXpro-lux expression pattern as well as the growth characteristics of the mutant; induction of vraXpro-lux expression ([7]; MRSA USA300 LAC strain, exponential growth phase): concentration-dependent manner; bacterial growth density (OD600) ([7]; post-exponential growth phase): effectively reduced the bacterial growth density; Sensitization fold [9, 16]: 8; FICI [9, 17]: <0.51; Sensitization fold [9, 17]: 2; Maximum sensitization concentration [9]: 2 µg/mL; Minimum sensitization concentration [9]: 0.25 µg/mL; MIC of β-lactam, combined [9, 20]: 8 µg/mL; MIC of β-lactam, combined [9, 21]: 32 µg/mL; water solubility [12]: almost insoluble in pure water"
